By EC50 is commonly meant the concentration giving half of the maximal effect. The term ED50 denotes the dose that gives a 50% effect, or the effect in half of the subjects.

The source made the active and inactive calls. The rule behind the calls is not given here.

In series [1] the target is T1, Mu-type opioid receptor (Homo sapiens, UniProt P35372). Nature of the series: Agonist activity at human mu opioid receptor expressed in CHOK1 cells coexpressing Galpha15 assessed as increase in intracellular calcium flux in presence of mu opioid receptor antagonist naloxone and incubated for 1 hr measured for 90 secs at 1.5 sec interval by FLIPR assay. The series is classed as functional, cell-based. On the technique in general: A change in cytosolic calcium serves as a functional read-out for many receptors and channels.
T1 sequence (P35372 whole entry): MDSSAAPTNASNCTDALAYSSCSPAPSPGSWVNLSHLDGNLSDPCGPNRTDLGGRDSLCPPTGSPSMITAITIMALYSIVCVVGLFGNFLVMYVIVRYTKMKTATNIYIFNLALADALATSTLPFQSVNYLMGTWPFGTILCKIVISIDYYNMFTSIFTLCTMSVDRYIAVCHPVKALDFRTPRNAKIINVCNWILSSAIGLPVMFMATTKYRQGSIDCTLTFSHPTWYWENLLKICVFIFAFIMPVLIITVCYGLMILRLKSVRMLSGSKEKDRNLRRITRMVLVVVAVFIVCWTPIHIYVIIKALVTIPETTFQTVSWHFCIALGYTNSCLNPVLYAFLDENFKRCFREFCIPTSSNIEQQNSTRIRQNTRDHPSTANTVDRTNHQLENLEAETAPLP

For series [2], the target named is T1, Mu-type opioid receptor. Kind of series: Agonist activity at human mu opioid receptor expressed in CHOK1 cells coexpressing Galpha15 assessed as intracellular calcium AUC in presence of mu opioid receptor antagonist naloxone and incubated for 1 hr measured for 90 secs at 1.5 sec interval by FLIPR assay to morphine. Further details: concentration or dose not given beside the values. The format is functional, cell-based.

Series [3] relates to Mus musculus. Kind of series: Antinociceptive activity in C57BL/6 mouse model of thermal-induced nociception at 100 mg/kg, sc measured up to 30 to 180 mins by tail flick test. The series is classed as functional, organism-based. In general terms: Hot-plate and tail-flick tests time the reaction to a heat stimulus.
Series [4] relates to Mus musculus. Nature of the series: Antinociceptive activity in C57BL/6 mouse model of thermal-induced nociception assessed as inhibition of tail-flick response by measuring AUC of tail flick test at 100 mg/kg, iv measured up to 30 to 180 mins in presence of 10 mg/kg, sc opioid receptor antagonist naloxone by tail flick test. The series is classed as functional, organism-based.

In series [5] the test system is Mus musculus. Kind of series: Antinociceptive activity in C57BL/6 mouse model of thermal-induced nociception assessed as inhibition of tail-flick response by measuring AUC of tail flick test at 25 to 100 mg/kg, iv measured up to 30 to 180 mins in presence of 10 mg/kg, sc opioid receptor antagonist naloxone by tail flick test. The series is classed as functional, organism-based.

The subject of series [6] is Mus musculus. Nature of the series: Antinociceptive activity in C57BL/6 mouse model of thermal-induced nociception assessed as inhibition of tail-flick response at 100 mg/kg, iv measured at 30 mins in presence of opioid receptor antagonist naloxone at 100 ng/kg, sc by tail flick test. The series is classed as functional, organism-based.
Series [7] relates to Mus musculus. Kind of series: Antinociceptive activity in C57BL/6 mouse model of thermal-induced nociception assessed as naloxone ED50 for inhibition of tail-flick response by measuring AUC of tail flick test at 100 mg/kg, iv measured up to 30 to 180 mins in presence of 10 mg/kg, sc opioid receptor antagonist naloxone by tail flick test. The format is functional.
In series [8] the test system is Mus musculus. Nature of the series: Antinociceptive activity in C57BL/6 mouse model of thermal-induced nociception assessed as inhibition of tail-flick response by measuring AUC of tail flick test at 50 mg/kg, iv measured up to 30 to 180 mins in presence of 10 mg/kg, sc opioid receptor antagonist naloxone by tail flick test. The format is functional, organism-based.

Series [9] in a line: Toxicity in C57BL/6 mouse at 100 mg/kg, iv measured up to 30 to 180 mins during tail-flick test. The format is organism-based. As to conditions: in vivo.
The nature of series [10]: Toxicity in iv dosed C57BL/6 mouse assessed as safe dose causing no animal death measured up to 30 to 180 mins during tail-flick test. The series is classed as organism-based. The conditions noted are these: in vivo.
Series [11] deals with Mus musculus. Nature of the series: Antinociceptive activity in C57BL/6 mouse model of thermal-induced nociception assessed as inhibition of tail-flick response by measuring AUC of tail flick test at 25 mg/kg, iv measured up to 30 to 180 mins in presence of 10 mg/kg, sc opioid receptor antagonist naloxone by tail flick test. The format is functional, organism-based.
Series [12] relates to Mus musculus. Kind of series: Antinociceptive activity in C57BL/6 mouse model of thermal-induced nociception assessed as inhibition of tail-flick response at 100 mg/kg, iv measured up to 30 to 180 mins in presence of opioid receptor antagonist naloxone at 100 ng/kg, sc by tail flick test. The series is classed as functional, organism-based.
The subject of series [13] is Mus musculus. Nature of the series: Antinociceptive activity in C57BL/6 mouse model of thermal-induced nociception at 100 mg/kg measured at 30 mins post injection by tail flick test. The format is functional, organism-based.

Turning to `Cc1nc(C)c(-c2csc(Nc3ccc(Br)cc3C)n2)s1`, the EC50 in [1] was above 30 µM. Further, in [2], the outcome was inactive.

Regarding `CCc1cc(Br)ccc1Nc1nc(-c2sc(C)nc2C)cs1`, the EC50 in series [1] is 4.9 µM. In [2], the Activity turned out to be 5.9%.

For the compound `CCc1cccc(C)c1Nc1nc(-c2sc(C)nc2C)cs1`, the EC50 in [1] was determined as 2.8 µM. Also, the Activity in series [2] was 38.2%.

In the case of `Cc1nc(C)c(-c2csc(Nc3ccc(Br)cc3C(F)(F)F)n2)s1`, the EC50 in [1] turned out to be 13.8 µM. Also, the Activity in series [2] amounted to 32.9%.

For the compound `Cc1nc(C)c(-c2csc(Nc3cccc(F)c3C)n2)s1`, in series [1], the EC50 is 10.1 µM. For the same compound, the Activity in series [2] stood at 57.9%.

With `C=CCN1CC[C@]23c4c5ccc(O)c4O[C@H]2C(=O)CC[C@@]3(O)[C@H]1C5`, the result in series [3] was inactive.

In the case of `CCc1nc(C)c(-c2csc(Nc3ccccc3CC)n2)s1`, in series [1], the half-maximal effective concentration (EC50) is 8.6 µM. Further, in series [2], the Activity worked out at 32.5%.

Regarding `CCc1ccccc1Nc1nc(-c2sc(C)nc2C)cs1`, the figures for the AUC in series [4], in series [8] and in series [11] were 384 min.sec, 160 min.sec and 115 min.sec, respectively. The values for the Activity result in series [5], in [9] and in series [10] were “Dose-dependent effect”, “Non-Toxic” and 100 mg/kg, respectively. For the same compound, the result in series [6] and in [13] was inactive. Besides, the 50% effective dose (ED50) in [7] worked out at 17.5 mg/kg. For the same compound, the outcome in [12] was Active.

In the case of `CCc1ccccc1Nc1nc(-c2nccs2)cs1`, the 50% effective concentration (EC50) in series [1] was above 30 µM. Besides, the outcome in series [2] was inactive.

`CCc1ccccc1Nc1ncc(-c2sc(C)nc2C)o1`: the half-maximal effective concentration (EC50) in series [1] is 13.3 µM. The Activity in [2] was 34.4%.

Take `COc1cccc(Nc2nc(-c3sc(C)nc3C)cs2)c1C`: the EC50 in series [1] was determined as 3.3 µM. Further, in series [2], the Activity came out at 27.2%.

Turning to `Cc1cc(C)c(Nc2nc(-c3oc(C)nc3C)cs2)c(C)c1`, in series [1], the EC50 came out at 3.9 µM. Further, the Activity in series [2] stood at 43.2%.

As for `Cc1nc(C)c(-c2csc(Nc3c(C(C)C)cccc3C(C)C)n2)s1`, the EC50 in [1] is above 30 µM. The outcome in series [2] was inactive.

As to `CCc1ccccc1Nc1nc(-c2sc(-c3ccccc3)nc2C)cs1`, in series [1], the concentration for a half-maximal effect (EC50) was above 30 µM. Also, in series [2], the outcome was inactive.

`CCc1ccccc1Nc1nc(-c2sc(NC(C)=O)nc2C)cs1`: the EC50 in series [1] is above 30 µM. The result in series [2] was inactive.

`CCc1ccccc1Nc1nc(-c2oc(C)nc2C)cs1`: in series [1], the EC50 is 3.3 µM. In addition, the Activity in [2] was 76.2%.

`CCc1ccccc1Nc1nc(-c2sc(N)nc2C)cs1`: in series [1], the EC50 is above 30 µM. Moreover, the outcome in series [2] was inactive.

For the compound `COc1ccc(Nc2nc(-c3sc(C)nc3C)cs2)c(OC)c1`, in series [1], the EC50 worked out at 19 µM. The Activity in series [2] was 45.2%.

Regarding `Cc1ccc(Nc2nc(-c3sc(C)nc3C)cs2)c(C)c1`, in series [1], the EC50 turned out to be 8.8 µM. Besides, the Activity in series [2] came to 57.2%.

In the case of `Cc1cc(C)c(Nc2nc(-c3sc(C)nc3C)cs2)c(C)c1`, the half-maximal effective concentration (EC50) in series [1] stood at 6.1 µM. Also, in [2], the Activity was determined as 52%.

Turning to `Cc1nc(C)c(-c2csc(Nc3ccccc3CC(F)(F)F)n2)s1`, in [1], the EC50 was 8.5 µM. Also, the Activity in series [2] came to 72.1%.

As to `COc1ccc(Nc2nc(-c3sc(C)nc3C)cs2)c(C)c1`, the EC50 in [1] amounted to 14 µM. In addition, in [2], the Activity stood at 32.6%.

For the compound `CCc1ccccc1Nc1nc(C)cs1`, in [1], the concentration giving a half-maximal response (EC50) was above 30 µM. Further, in [2], the outcome was inactive.

As for `Cc1nc(C)c(-c2csc(Nc3c(C)cccc3F)n2)s1`, the concentration giving a half-maximal response (EC50) in series [1] is 4.2 µM. Further, the Activity in series [2] amounted to 32%.

`CCc1ccccc1Nc1nc(-c2sc(C)nc2C)c(C)s1`: in series [1], the half-maximal effective concentration (EC50) is above 30 µM. The outcome in [2] was inactive.

With `Cc1nc(C)c(-c2csc(N)n2)s1`, the concentration giving a half-maximal response (EC50) in series [1] is above 30 µM. The outcome in [2] was inactive.

These data come from ChEMBL document CHEMBL4390642, “The in vivo antinociceptive and μ-opioid receptor activating effects of the combination of N-phenyl-2',4'-dimethyl-4,5'-bi-1,3-thiazol-2-amines and naloxone” (Eur J Med Chem, 2019).
